Source: US5358936A, “Anionic furanose derivatives, methods of making and using the same” (Gordon; Paul, priority 1991, dated 1994)
Values joined by “and” are separate entries in the source; they are usually repeats but may differ in a detail not shown here. Equal values may be shown once. “Also recorded” adds a separate entry of the source.

Assays:
[1] = system: focal submucosal lesions; test: Ethanol-induced gastric focal lesions (Example 33); type: in vivo, rat; settings: one hour post-ethanol, 50 mg/kg
[2] = system: gastric mucosal ulcers; test: Healing of established gastric ulcers induced by acetic acid (Example 34); type: in vivo, rat
Excerpt: To evaluate drug effects on peptic ulcer healing, gastric mucosal ulcers were produced in rats, after a two day fast, by a modification of the method of Konturek et al., Am. J. Med., Vol. 86, 6A, 32 (1989). Briefly, to produce a mucosal ulcer, Konturek et al. applied 100 percent acetic acid for twenty seconds to the stomach serosa through a small cylindrical mold, 4.2 mm in diameter. The aim here was to make ulceration more severe than was achieved by the Konturek group so that spontaneous healing would not be as pronounced as they found in the controls, over an experimental period of seven days.
All drugs studied were suspended in 0.25 percent (by weight) aqueous methylcellulose solution as the vehicle or diluent, which also served as the placebo given to the controls. Treatments were given once daily by oral gavage, in one milliliter of vehicle. The treatment groups were: Control; Sucralfate at 200 mg/kg; and Compound III:Al at 200 mg/kg.
At the end of the treatment period, stomachs were removed, ulcer diameters were measured, and determination was made of the presence or absence of perforation.
A second study was carried out in which ulcer evolution was permitted to take place over five additional days, in the absence and presence of treatment with Sucralfate.
A third study was begun one day following the start of study 2, in which ulcer evolution was allowed to take place over five additional days, in the absence and presence of treatment with Compound III:Al.
In another study, after ulcer induction as above, a different dosage protocol was employed at 24 hours to evaluate the interaction of Compound III and orally administered sucralfate on ulcer healing. […] Here, daily drug doses of the following were used: (a) sucralfate at 200 mg/kg, alone and (b) in combination with 80 mg/kg Compound III given by mouth at -45 minutes, and, in a third group, (c) in combination with 10 mg/kg Compound III given IV also at -45 minutes. In this interaction study, drug treatment was continued for three and not five days, as was the case for the above studies, followed by passage of two additional non-treatment days before sacrifice of animals for evaluation of stomach ulcer area and perforation.
Data from all ulcer-healing studies employing a drug dosage of 200 mg/kg and the same ulcerogenesis protocol were pooled as to the frequency of gastric perforation observed on day five, not shown separately, with the day six perforation data shown above.

[3] = Dissolution and buffering of suspensions, HCl titration (Example 16)
Excerpt: Note that the term "apparent pK" in this context is meant to encompass the maximization of buffering that come both from solid-state dissolution and its titration as solute.

[4] = system: focal submucosal lesions; test: Ethanol-induced gastric focal lesions (Example 33); type: in vivo, rat
Method: At three hours after ethanol administration, this drug continued to suppress ethanol-induced focal lesions (-57 percent).
A suspension of 25 mg/kg sucralfate+25 mg/kg Compound III:Al in combination was given as a pretreatment administration to another group in the same study. The combination produced an unanticipated augmentation of therapeutic effect against ethanol-induced focal submucosal lesions (-90 percent) at three hours post-ethanol administration. The same interactive phenomenon was also observed when Compound III was used, rather than Compound III:Al.

[5] = Solubility / dissolution in acid, water and 20 percent methanol; type: physicochemical; settings: pH 1.2; Compound III:Al 2.5 mg/ml
[6] = Physicians' Desk Reference (1990); cited from earlier work
[7] = three hours post-ethanol, 50 mg/kg, combination 25 + 25 mg/kg

## sucrose octakis-(hydrogen sulfate) aluminum complex [sucralfate, reference compound]
[1]
  change in focal lesions versus control: -100%
[1]; n = 6, control 4.17 ± 1.58, p<0.05
  Focal Lesions per Stomach: 0.00 per Stomach
[2]; Day 6, 200 mg/kg oral
  DRUG EFFECT on mean ulcer score: -33%
[2]; Day 6, 200 mg/kg oral once daily, * = perforation, 200 mg/kg
  Established ulcer score, individual animal (area in cm^2, + 2.0 for perforation): 2.96 and 5.75 and 3.0 and 1.0 and 0.96 and 3.5 and 1.5 and 0.1 and 1.05 and 0.4
[2]; Day 6, 200 mg/kg oral, controls 3.03 ± 0.73 (sucralfate study, not significant), 4.12 ± 0.67 (Compound III:Al study, P < 0.001)
  MEAN SCORE, established ulcers: 2.02 ± 0.55
[2]; day six, 200 mg/kg oral
  DRUG EFFECT on mean ulcer area: -43%
[2]; day six, 200 mg/kg oral, controls 2.14 ± 0.43 (sucralfate, P < 0.1), 2.32 ± 0.61 (Compound III:Al, P < 0.05)
  Established ulcer area, MEAN: 1.22 ± 0.31 CM^2
[2]; day six, three days treatment, sucralfate 200 mg/kg alone
  Established ulcer area, MEAN (comparative treatments): 2.11 ± 0.41 CM^2
[2]; pooled, 200 mg/kg, control 50, Compound III:Al P < 0.001 vs control and vs sucralfate
  Perforation As Percent: 38%
[2]; pooled, 200 mg/kg, days five and six, control 26/52
  Perforation Frequency: 12/32
[3]; 50 mg in 20 ml distilled water, initial pH 4.44 (aluminum trihydroxide), 4.91 (sucralfate), 4.23 (Compound III:Al), water alone 0.30
  HCl needed to lower pH of suspension to below pH 2.00: 0.4 meq
[3]; HCl titration
  buffering action, in words: only a minor buffering action between pH 1.73 and 1.47
[3]; sucralfate = 1
  Relative Buffering Power between pH 4.5 and 2.0: 1
[4]; pretreatment 50 mg/kg one hour before ethanol
  effect on ethanol-produced gastric pathology, in words: inhibited all focal submucosal lesions; also recorded: All large vessel vasodilation provoked by ethanol was also inhibited one hour after ethanol treatment; also recorded: at three hours all therapeutic effects of sucralfate on ethanol-produced gastric pathology were absent
[4]; [7]
  change in focal lesions versus control: +6%
  change in focal lesions versus control, study employing Compound III: +44%
[4]; three hours post-ethanol, 50 mg/kg, combination 25 + 25 mg/kg, control 2.25 ± 0.98
  Focal Lesions per Stomach, study employing Compound III: 3.25 + 1.01 per Stomach
[4]; three hours post-ethanol, 50 mg/kg, combination 25 + 25 mg/kg, n = 17, control 4.94 ± 1.41
  Focal Lesions per Stomach: 5.24 ± 1.49 per Stomach
[5]
  dissolution of suspension in acid: complete dissolution
[6]
  absorption from the gastrointestinal tract: only minimally absorbed
